Test results taken from ChEMBL document CHEMBL3507680, “University of Dundee, Gates Library screen for HepG2 cell viability”.

experiment: Human HepG2 cell viability assay in 384 well format; assay type: toxicity, cell-based; set-up: dose 125 nL, time 70.5 hour; concentration not given beside the values; conditions: HepG2 cells, read-out: Inhibition

**Q.** With `CS(=O)(=O)NCc1nnc2n1CCN(Cc1ccc(F)cc1)C2` as the compound, how does the cytotoxicity at 70.5 h read?
**A.** -3.88%

**Q.** For `Cc1cccc(C(=O)N2C[C@@H]3OCCN(CCN4CCCC4)[C@@H]3C2)n1`, which cytotoxicity at 70.5 h is on record?
**A.** -7.28%

**Q.** With `CC1=N[C@@]2(CC[C@@H]3CN(S(=O)(=O)C4CC4)C[C@@H]32)C(=O)N1CC(C)C` as the compound, how does the cytotoxicity at 70.5 h read?
**A.** 10.8%

**Q.** With `Cc1nc(COC[C@@H]2CC[C@H]3[C@H](CCN3C(=O)C3CC3)O2)cs1` as the compound, how does the cytotoxicity at 70.5 h read?
**A.** -7.97%

**Q.** With `CC1=N[C@@]2(CC[C@@H]3CN(S(C)(=O)=O)C[C@@H]32)C(=O)N1CC(C)C` as the compound, how does the cytotoxicity at 70.5 h read?
**A.** -15.6%

**Q.** Which cytotoxicity at 70.5 h does the source give for `CCN1C(=O)[C@]2(CC[C@@H]3CN(S(=O)(=O)CC(C)C)C[C@@H]32)N=C1C` here?
**A.** -12.6%

**Q.** With `Cc1nnc([C@@H]2CC[C@@H]3[C@@H](CCN3S(C)(=O)=O)O2)o1` as the compound, how does the cytotoxicity at 70.5 h read?
**A.** -10.9%

**Q.** With `CN(C)CC(=O)N1Cc2nc(C(=O)NCc3ccccc3)oc2C1` as the compound, how does the cytotoxicity at 70.5 h read?
**A.** 13%

**Q.** For `CCS(=O)(=O)N1C[C@H]2CC[C@@]3(N=C(C)N(CC(C)C)C3=O)[C@H]2C1`, which cytotoxicity at 70.5 h is on record?
**A.** -10.8%

**Q.** For `CC(=O)N1Cc2nc(C(=O)NCCc3cccnc3)oc2C1`, which cytotoxicity at 70.5 h is on record?
**A.** -6.92%

**Q.** Which cytotoxicity at 70.5 h does the source give for `CCN1Cc2c(C(=O)NC(C)C)ncn2-c2ccccc2S1(=O)=O` here?
**A.** -16.2%

**Q.** For `CC(=O)N1CC[C@@H]2O[C@@H](COCc3csc(C)n3)CC[C@@H]21`, which cytotoxicity at 70.5 h is on record?
**A.** 12%

**Q.** Which cytotoxicity at 70.5 h does the source give for `CCN1C(=O)CO[C@@H]2CN(C(=O)C3CCOCC3)C[C@H]21` here?
**A.** -6.45%

**Q.** Which cytotoxicity at 70.5 h does the source give for `CN1CCN(Cc2cnc3n2CCN(C(=O)c2cscn2)C3)CC1` here?
**A.** -3%

**Q.** Which cytotoxicity at 70.5 h does the source give for `Cn1cc(CN2Cc3cn(C)nc3C(COCC3CC3)C2)cn1` (stereo not given) here?
**A.** -5.92%

**Q.** Which cytotoxicity at 70.5 h does the source give for `Cc1noc([C@H]2C[C@H]3CN(C(=O)C4CCOCC4)CC[C@@H]3O2)n1` here?
**A.** -12.9%

**Q.** For `O=C1CC2(CCN(Cc3ncc[nH]3)CC2)CN1Cc1cc(F)cc(F)c1`, which cytotoxicity at 70.5 h is on record?
**A.** -3.59%

**Q.** With `O=C(O)[C@@H]1CN(C(=O)CSCC2CC2)C[C@H]1c1ccncc1` as the compound, how does the cytotoxicity at 70.5 h read?
**A.** 1.26%

**Q.** For `COc1cccc2c1OCC(Cc1cc(C(N)=O)ccn1)C2` (stereo not given), which cytotoxicity at 70.5 h is on record?
**A.** 26%

**Q.** For `CNCC(=O)N1CCCC1c1nc(C(C)C)no1` (stereo not given), which cytotoxicity at 70.5 h is on record?
**A.** -7.36%

**Q.** For `COc1cccc([C@H]2CN(C(=O)c3scc4c3CCCC4)C[C@@H]2N)c1`, which cytotoxicity at 70.5 h is on record?
**A.** -12%

**Q.** Which cytotoxicity at 70.5 h does the source give for `COc1ccccc1CN(Cc1cccnc1)Cc1nccs1` here?
**A.** 9.35%

**Q.** Which cytotoxicity at 70.5 h does the source give for `Cc1cc(C)n(CCCN(C)c2cc(C3CC3)ncn2)n1` here?
**A.** -7.51%

**Q.** Which cytotoxicity at 70.5 h does the source give for `Cn1cc(CN(C(=O)c2ccc(O)c(Cl)c2)C2CC2)cn1` here?
**A.** -14.8%

**Q.** With `OC1(CN2CCCCC2)CCN(c2cccc(C(F)(F)F)n2)C1` (stereo not given) as the compound, how does the cytotoxicity at 70.5 h read?
**A.** -14.1%

**Q.** Which cytotoxicity at 70.5 h does the source give for `COCCNc1cc(-c2cccc(C(=O)O)c2C)c2cc[nH]c2n1` here?
**A.** -11.2%

**Q.** For `COc1ccccc1-c1ncc(CN2CCCC(CCC(N)=O)C2)s1` (stereo not given), which cytotoxicity at 70.5 h is on record?
**A.** -10.1%

**Q.** With `COc1ccc2cc(C3CN(C(=O)COC(C)C)CCO3)ccc2c1` (stereo not given) as the compound, how does the cytotoxicity at 70.5 h read?
**A.** -2.81%

**Q.** With `Cc1ccc([C@@H]2CN(C(=O)c3ccon3)C[C@H]2NC(=O)C2CC2)cc1` as the compound, how does the cytotoxicity at 70.5 h read?
**A.** -0.162%

**Q.** For `Cc1ncc(CC(=O)N2CCCCC2CCN2CCCC2)c(=O)[nH]1` (stereo not given), which cytotoxicity at 70.5 h is on record?
**A.** -3.87%

**Q.** With `CCNC(=O)c1ccnc(N2CCCC(COc3ccccc3C)C2)c1` (stereo not given) as the compound, how does the cytotoxicity at 70.5 h read?
**A.** -21.9%

**Q.** With `CCNc1ncc(C(=O)N[C@@H](C)[C@H](O)c2ccccc2)cn1` as the compound, how does the cytotoxicity at 70.5 h read?
**A.** -2.67%

**Q.** With `O=C(CCC1CCN(C(=O)c2csnn2)CC1)NCc1cccc(Cl)c1` as the compound, how does the cytotoxicity at 70.5 h read?
**A.** 7.85%

**Q.** With `CC(CCCC(C)(C)O)Nc1ccc(-c2nccn2C)nn1` (stereo not given) as the compound, how does the cytotoxicity at 70.5 h read?
**A.** 0.443%

**Q.** For `CNC(=O)C1CCN(c2ncnc3c2CCN(C(=O)C2CC2)C3)C1` (stereo not given), which cytotoxicity at 70.5 h is on record?
**A.** -5.76%

**Q.** Which cytotoxicity at 70.5 h does the source give for `CC(C)c1cc(C(=O)NCCn2nnc3ccccc32)no1` here?
**A.** 41.3%

**Q.** For `CCN(CC)CC(=O)NCc1cccnc1-n1cnc2ccccc21`, which cytotoxicity at 70.5 h is on record?
**A.** -3.36%

**Q.** With `COc1ccc2c(c1)C(C(=O)N(C)CCn1ccnc1C)CC(=O)N2` (stereo not given) as the compound, how does the cytotoxicity at 70.5 h read?
**A.** -3.22%

**Q.** With `CCOc1ccccc1-n1c(C2CCC2)n[nH]c1=O` as the compound, how does the cytotoxicity at 70.5 h read?
**A.** -18.9%

**Q.** With `Cc1noc(C)c1C1CCCN1CCC(=O)N1CCc2ccccc2C1` (stereo not given) as the compound, how does the cytotoxicity at 70.5 h read?
**A.** -13.3%

**Q.** Which cytotoxicity at 70.5 h does the source give for `NCC1CCCN(c2nc(-c3ccccc3)nc3c2CCNCC3)C1` (stereo not given) here?
**A.** 5.19%

**Q.** With `COCC1CCN(C(=O)c2cn(Cc3ccccc3C(F)(F)F)nn2)C1` (stereo not given) as the compound, how does the cytotoxicity at 70.5 h read?
**A.** -21.7%

**Q.** With `CC(=O)N1CCCN(C(=O)Nc2ccccc2N2CCOC2=O)CC1` as the compound, how does the cytotoxicity at 70.5 h read?
**A.** -4.99%

**Q.** With `O=C(CC1C=CCC1)N1CCc2ncnc(NCc3ccon3)c2CC1` (stereo not given) as the compound, how does the cytotoxicity at 70.5 h read?
**A.** 23.6%

**Q.** Which cytotoxicity at 70.5 h does the source give for `CCCN1CCC(N2CCN(c3cc(C)nc(C)c3)CC2)CC1` here?
**A.** 5.6%

**Q.** For `O=C1CCC2(CCCN(C(=O)c3ccc[nH]3)C2)CN1CCc1c[nH]cn1` (stereo not given), which cytotoxicity at 70.5 h is on record?
**A.** 16.9%

**Q.** Which cytotoxicity at 70.5 h does the source give for `N#Cc1c(N)nc2c(c1-c1cnc(N3CCCC3)nc1)COCC2` here?
**A.** -5.19%

**Q.** Which cytotoxicity at 70.5 h does the source give for `CCn1ncnc1C(C)NC(=O)Cc1cc2c(cc1Cl)OCCO2` (stereo not given) here?
**A.** 1.43%

**Q.** Which cytotoxicity at 70.5 h does the source give for `COCCNS(=O)(=O)c1cccc2c1CN(C(=O)c1ccoc1)CC2` here?
**A.** -10.7%

**Q.** For `Cc1ccc(CN(C)Cc2nc3ccc(F)cc3[nH]2)cn1`, which cytotoxicity at 70.5 h is on record?
**A.** -0.998%

**Q.** For `Cc1cc(C2CCCN2Cc2ccc(C(=O)Nc3nccs3)cc2)on1` (stereo not given), which cytotoxicity at 70.5 h is on record?
**A.** -2.76%

**Q.** For `Cn1ccnc1CCC1CCCCN1Cc1nccn1C` (stereo not given), which cytotoxicity at 70.5 h is on record?
**A.** 14.9%

**Q.** Which cytotoxicity at 70.5 h does the source give for `CC(C)CC(C)NC1CCN(c2cccc(-c3cscn3)c2)CC1` (stereo not given) here?
**A.** -8.68%

**Q.** Which cytotoxicity at 70.5 h does the source give for `COc1ccc(CCCN2C(=O)O[C@@H]3CN(C4CCOCC4)C[C@@H]32)cc1` here?
**A.** -3.64%

**Q.** Which cytotoxicity at 70.5 h does the source give for `CSCC(=O)N(C)Cc1noc(-c2ccccc2)n1` here?
**A.** -9.48%

**Q.** Which cytotoxicity at 70.5 h does the source give for `CCN1CC(CN(C)Cc2nc(-c3cccc(C)c3)oc2C)CC1=O` (stereo not given) here?
**A.** 28.2%

**Q.** With `Cc1nc2cc(NC(=O)Cn3ncc(N4CCCC4)cc3=O)ccc2s1` as the compound, how does the cytotoxicity at 70.5 h read?
**A.** -4.89%

**Q.** With `Cc1c[nH]c(CN2CCOC(c3ccc(F)cc3)C2)c(C)c1=O` (stereo not given) as the compound, how does the cytotoxicity at 70.5 h read?
**A.** -3.86%

**Q.** With `O=C(CC(F)(F)F)N1CCCC(c2nccn2Cc2ccncc2)C1` (stereo not given) as the compound, how does the cytotoxicity at 70.5 h read?
**A.** -6.22%

**Q.** With `CC(C)CN1CC(c2nc(-c3cccc(F)c3)c[nH]2)CC1=O` (stereo not given) as the compound, how does the cytotoxicity at 70.5 h read?
**A.** -7.31%

**Q.** With `CC(=O)N1CCOC(Cc2cccc(C(F)(F)F)c2)C1` (stereo not given) as the compound, how does the cytotoxicity at 70.5 h read?
**A.** -4.91%

**Q.** With `O=C(C1CCOCC1)N1CCc2onc(COc3cccnc3)c2C1` as the compound, how does the cytotoxicity at 70.5 h read?
**A.** 0.0469%

**Q.** For `O=C(c1ccncc1F)N1CCc2onc(COc3cccnc3)c2C1`, which cytotoxicity at 70.5 h is on record?
**A.** -6.64%

**Q.** For `O=S(=O)(c1cccs1)N1CCCC2(COCCN(c3cccnc3)C2)C1` (stereo not given), which cytotoxicity at 70.5 h is on record?
**A.** -1.65%

**Q.** Which cytotoxicity at 70.5 h does the source give for `O=C(N1CCCC1)N1CCc2onc(COc3cccnc3)c2C1` here?
**A.** -3.27%

**Q.** Which cytotoxicity at 70.5 h does the source give for `Cn1cc(C[C@H]2[C@H](O)CCN2CC2CCOCC2)cn1` here?
**A.** -6.28%

**Q.** For `O=C([C@H]1C[C@H]2OCC[C@H]2N(CC2CCOCC2)C1)N1CCCCO1`, which cytotoxicity at 70.5 h is on record?
**A.** -7.91%

**Q.** Which cytotoxicity at 70.5 h does the source give for `CC1=N[C@@]2(CC[C@@H]3CN(CC(C)C)C[C@@H]32)C(=O)N1CC(C)C` here?
**A.** -13.7%

**Q.** Which cytotoxicity at 70.5 h does the source give for `O=C(NCC1OCCc2cn(CC3CCOCC3)nc21)c1ccncc1` (stereo not given) here?
**A.** -10.6%

**Q.** Which cytotoxicity at 70.5 h does the source give for `COCCNC(=O)[C@H]1C[C@@H]2CCN(Cc3nccs3)C[C@H]2O1` here?
**A.** -13.5%

**Q.** For `CN1CCN(C2COC3(CCN(Cc4cccs4)CC3)C2)CC1` (stereo not given), which cytotoxicity at 70.5 h is on record?
**A.** 4.27%

**Q.** With `c1csc(CN2CCCC3(COCCN(c4cnccn4)C3)C2)c1` (stereo not given) as the compound, how does the cytotoxicity at 70.5 h read?
**A.** -6.31%

**Q.** For `O=C(Cc1ccccn1)N1CCN2C[C@H](Oc3cncnc3)C[C@H]2C1`, which cytotoxicity at 70.5 h is on record?
**A.** -7.37%

**Q.** Which cytotoxicity at 70.5 h does the source give for `Cc1cc(CN2CC[C@H]3C[C@H](C(=O)Nc4cccnc4C)O[C@@H]3C2)no1` here?
**A.** 12.4%

**Q.** Which cytotoxicity at 70.5 h does the source give for `Cc1ncccc1NC(=O)[C@H]1C[C@@H]2CCN(Cc3ccsc3)C[C@H]2O1` here?
**A.** -13.8%
